Reference: ChEMBL document CHEMBL4715830, “Design, synthesis and biological evaluation of suramin-derived dual antagonists of the proinflammatory G protein-coupled receptors P2Y and GPR17” (Eur J Med Chem, 2020)
Activity calls are given as the source filed them. No cut-off for these calls is given here.

What was measured:
[1] = biological target: T1, Uracil nucleotide/cysteinyl leukotriene receptor (Homo sapiens, UniProt Q13304); assay: (§1) Antagonist activity at human GPR17 expressed in human 1321N1 cells assessed as inhibition of ATP-induced intracellular calcium influx preincubated for 20 mins followed by ATP addition measured at 0.4 secs interval for 60 times by Oregon Green BAPTA-1/AM dye-based fluorescence assay; type: functional, cell-based
T1 sequence (Q13304 whole entry): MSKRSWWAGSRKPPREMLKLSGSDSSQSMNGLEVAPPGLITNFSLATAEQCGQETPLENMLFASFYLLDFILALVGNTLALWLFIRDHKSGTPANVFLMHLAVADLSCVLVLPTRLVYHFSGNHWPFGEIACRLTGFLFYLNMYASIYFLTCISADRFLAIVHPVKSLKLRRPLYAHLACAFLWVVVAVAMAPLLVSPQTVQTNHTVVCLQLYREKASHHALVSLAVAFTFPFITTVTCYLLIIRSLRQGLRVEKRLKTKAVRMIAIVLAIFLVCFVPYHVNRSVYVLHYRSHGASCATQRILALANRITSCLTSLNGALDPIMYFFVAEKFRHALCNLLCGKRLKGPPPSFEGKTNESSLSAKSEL

[2] = biological target: T1, Uracil nucleotide/cysteinyl leukotriene receptor; assay: as §1, with “influx at 10 uM” for “influx”, “assay relative to control” for “assay”; type: functional, cell-based
[3] = biological target: P2Y purinoceptor 2 (Homo sapiens, UniProt P41231); assay: (§2) Antagonist activity at human P2Y2 receptor expressed in human 1321N1 cells assessed as inhibition of ATP-induced intracellular calcium influx preincubated for 20 mins followed by ATP addition measured at 0.4 secs interval for 60 times by Oregon Green BAPTA-1/AM dye-based fluorescence assay; type: functional, cell-based
Chain of P2Y purinoceptor 2 (P41231 whole entry): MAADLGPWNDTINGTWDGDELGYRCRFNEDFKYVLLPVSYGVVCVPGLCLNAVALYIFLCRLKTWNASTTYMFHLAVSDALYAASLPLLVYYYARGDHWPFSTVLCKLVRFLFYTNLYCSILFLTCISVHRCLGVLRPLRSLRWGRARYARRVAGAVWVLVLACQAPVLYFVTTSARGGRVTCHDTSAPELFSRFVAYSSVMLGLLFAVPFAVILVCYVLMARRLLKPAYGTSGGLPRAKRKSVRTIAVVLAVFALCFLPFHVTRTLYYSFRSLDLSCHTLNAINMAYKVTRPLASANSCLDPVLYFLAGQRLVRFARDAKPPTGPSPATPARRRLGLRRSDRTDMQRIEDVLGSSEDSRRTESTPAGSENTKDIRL

[4] = biological target: P2Y purinoceptor 4 (Homo sapiens) (UniProt P51582); assay: as §2, with “P2Y4” for “P2Y2”, “UTP-induced” for “ATP-induced”, “influx at 10 to 100 uM” for “influx”, “UTP” for “ATP”; type: functional, cell-based; details: dose 10-100 µM
Chain of P2Y purinoceptor 4 (Homo sapiens) (P51582 whole entry): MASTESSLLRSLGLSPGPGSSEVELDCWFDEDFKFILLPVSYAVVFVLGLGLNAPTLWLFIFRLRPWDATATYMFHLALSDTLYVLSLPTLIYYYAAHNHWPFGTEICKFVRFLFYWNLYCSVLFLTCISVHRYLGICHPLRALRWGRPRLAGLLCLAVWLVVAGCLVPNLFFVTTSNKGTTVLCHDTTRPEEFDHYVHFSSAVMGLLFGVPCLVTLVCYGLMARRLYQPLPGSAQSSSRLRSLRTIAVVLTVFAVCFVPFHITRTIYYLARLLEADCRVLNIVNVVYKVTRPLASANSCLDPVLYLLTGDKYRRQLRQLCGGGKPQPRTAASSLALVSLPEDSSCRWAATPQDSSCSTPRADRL

[5] = biological target: T2, P2Y purinoceptor 14 (Homo sapiens) (UniProt Q15391); assay: Antagonist activity at recombinant human Gi/Go-coupled GP2Y14 receptor expressed in CHOK1 cells assessed as inhibition of […]-induced inhibition of beta-arrestin recruitment at 10 uM by pathhunter assay; type: cell-based
T2 sequence (whole entry): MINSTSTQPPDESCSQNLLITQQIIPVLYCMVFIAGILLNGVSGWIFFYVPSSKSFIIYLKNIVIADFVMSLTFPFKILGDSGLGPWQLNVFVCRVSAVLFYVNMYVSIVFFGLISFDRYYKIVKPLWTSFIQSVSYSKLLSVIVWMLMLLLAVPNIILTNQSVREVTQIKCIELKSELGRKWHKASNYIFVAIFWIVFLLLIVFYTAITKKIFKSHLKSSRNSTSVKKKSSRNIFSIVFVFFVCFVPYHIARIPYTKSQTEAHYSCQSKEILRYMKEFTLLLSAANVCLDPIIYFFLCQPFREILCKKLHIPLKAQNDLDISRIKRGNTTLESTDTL

[6] = biological target: P2Y purinoceptor 12 (Homo sapiens) (UniProt Q9H244); assay: Antagonist activity at recombinant human Gi/Go-coupled GP2Y12 receptor expressed in CHOK1 cells assessed as inhibition of 2-(Methylthio)ADP-induced inhibition of beta-arrestin recruitment at 10 uM by pathhunter assay; type: cell-based; details: CHO-K1
Chain of P2Y purinoceptor 12 (Homo sapiens) (Q9H244 whole entry): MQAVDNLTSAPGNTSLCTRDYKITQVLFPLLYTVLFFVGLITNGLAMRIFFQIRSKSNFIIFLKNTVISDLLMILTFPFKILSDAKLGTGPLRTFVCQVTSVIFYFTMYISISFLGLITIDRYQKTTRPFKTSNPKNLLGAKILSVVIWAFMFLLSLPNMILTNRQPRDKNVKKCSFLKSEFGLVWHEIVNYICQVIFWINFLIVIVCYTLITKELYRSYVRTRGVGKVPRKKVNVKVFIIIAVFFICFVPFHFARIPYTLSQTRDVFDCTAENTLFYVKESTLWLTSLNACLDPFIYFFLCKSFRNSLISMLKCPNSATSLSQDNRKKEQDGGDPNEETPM

[7] = biological target: P2Y purinoceptor 1 (Homo sapiens) (UniProt P47900); assay: (§3) Antagonist activity at human P2Y1 receptor expressed in human 1321N1 cells assessed as inhibition of ADP-induced intracellular calcium influx at 10 uM preincubated for 20 mins followed by ADP addition measured at 0.4 secs interval for 60 times by Oregon Green BAPTA-1/AM dye-based fluorescence assay; type: functional, cell-based
Chain of P2Y purinoceptor 1 (Homo sapiens) (P47900 whole entry): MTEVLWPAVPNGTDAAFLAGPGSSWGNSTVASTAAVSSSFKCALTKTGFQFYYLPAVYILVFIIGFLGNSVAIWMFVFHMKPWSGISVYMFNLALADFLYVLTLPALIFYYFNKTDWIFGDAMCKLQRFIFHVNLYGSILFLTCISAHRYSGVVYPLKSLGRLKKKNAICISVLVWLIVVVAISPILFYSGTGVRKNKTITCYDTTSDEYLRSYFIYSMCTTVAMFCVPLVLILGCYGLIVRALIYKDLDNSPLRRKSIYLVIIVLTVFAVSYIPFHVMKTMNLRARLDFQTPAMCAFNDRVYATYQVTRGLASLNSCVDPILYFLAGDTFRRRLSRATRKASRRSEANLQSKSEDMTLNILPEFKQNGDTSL

[8] = biological target: P2Y purinoceptor 6 (Rattus norvegicus) (UniProt Q63371); assay: as §3, with “rat P2Y6” for “human P2Y1”, “UDP-induced” for “ADP-induced”, “10 to 100” for “10”, “UDP” for “ADP”; type: functional, cell-based; details: dose 10-100 µM
Chain of P2Y purinoceptor 6 (Rattus norvegicus) (Q63371 whole entry): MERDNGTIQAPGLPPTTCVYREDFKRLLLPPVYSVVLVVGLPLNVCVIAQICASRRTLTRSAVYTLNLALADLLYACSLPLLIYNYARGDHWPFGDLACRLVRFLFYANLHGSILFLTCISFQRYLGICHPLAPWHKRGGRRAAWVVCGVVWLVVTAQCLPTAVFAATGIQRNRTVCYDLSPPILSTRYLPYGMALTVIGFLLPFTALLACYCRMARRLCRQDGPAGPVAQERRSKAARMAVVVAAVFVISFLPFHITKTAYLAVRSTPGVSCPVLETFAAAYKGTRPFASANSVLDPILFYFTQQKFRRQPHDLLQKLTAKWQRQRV

[9] = Chemical stability of compound in pH 7 MeOH/water solution measured after 24 hrs by HPLC-MS analysis; type: physicochemical; details: buffer, pH 7, 24 h
[10] = Chemical stability of compound in pH 3 MeOH/water solution measured after 24 hrs by HPLC-MS analysis; type: physicochemical; details: buffer, pH 3, 24 h
[11] = Chemical stability of compound in pH 7 MeOH/water solution at 70 degC measured after 24 hrs by HPLC-MS analysis; type: physicochemical; details: buffer, pH 7, 24 h
[12] = Drug metabolism in pH 9 MeOH/water solution assessed as methyl 4-(2-chlorobenzamido)benzenesulfonate formation measured after 24 hrs by HPLC-MS analysis
[13] = biological target: P2Y purinoceptor 6 (Rattus norvegicus, UniProt Q63371); assay: Antagonist activity at rat P2Y6 receptor expressed in human 1321N1 cells assessed as inhibition of UDP-induced intracellular calcium influx preincubated for 20 mins followed by UDP addition measured at 0.4 secs interval for 60 times by Oregon Green BAPTA-1/AM dye-based fluorescence assay; type: functional, cell-based
Chain of P2Y purinoceptor 6 (Q63371 whole entry): as above

IC50 [1] [µM] | inhibition [2] [%] | IC50 [3] [µM] | inhibition [4] | inhibition [5] | inhibition [6] | inhibition [7] | inhibition [8] | Stabilty [9] | Stabilty [10] | Stabilty [11] | IC50 [13] [µM] | SMILES | Drug metabolism [12] [%]
> 100 | 33 | > 100 |  |  |  |  |  |  |  |  |  | Cc1ccc(C(=O)Nc2ccc(S(=O)(=O)O)c3cc(S(=O)(=O)O)cc(S(=O)(=O)O)c23)cc1NC(=O)c1cccc(NC(=O)Nc2cccc(C(=O)Nc3cc(C(=O)Nc4ccc(S(=O)(=O)O)c5cc(S(=O)(=O)O)cc(S(=O)(=O)O)c45)ccc3C)c2)c1 [SURAMIN HEXASODIUM] | 
 |  |  | inactive | inactive | inactive | inactive | inactive |  |  |  |  | O=C(Nc1ccc(S(=O)(=O)Oc2cccc([N+](=O)[O-])c2)cc1)c1cccc(Cl)c1 | 
 |  |  | inactive | inactive | inactive | inactive | inactive |  |  |  |  | Cc1ccc(C(=O)Nc2ccc(S(=O)(=O)Oc3cccc([N+](=O)[O-])c3)cc2)cc1 | 
 |  |  | inactive | inactive | inactive | inactive | inactive |  |  |  |  | Cc1cccc(NC(=O)c2cccc(NC(=O)c3cccc([N+](=O)[O-])c3)c2)c1 | 
 |  |  | inactive | inactive | inactive | inactive | inactive |  |  |  |  | O=C(Nc1ccc(S(=O)(=O)Oc2cccc([N+](=O)[O-])c2)cc1)c1cccc(Br)c1 | 
 |  |  | inactive | inactive | inactive | inactive | inactive | Stable | Stable | Stable |  | O=C(Nc1ccc(S(=O)(=O)Oc2cccc([N+](=O)[O-])c2)cc1)c1ccccc1Cl | 1.4
 |  |  | inactive | inactive | inactive | inactive | inactive |  |  |  |  | Cc1cccc(C(=O)Nc2cccc(S(=O)(=O)Oc3cccc([N+](=O)[O-])c3)c2)c1 | 
 |  |  | inactive | inactive | inactive | inactive | inactive |  |  |  |  | Cc1cccc(C(=O)Nc2ccc(NC(=O)c3cccc([N+](=O)[O-])c3)cc2)c1 | 
 |  |  | inactive | inactive | inactive | inactive | inactive |  |  |  |  | O=C(Nc1cccc(S(=O)(=O)Oc2cccc([N+](=O)[O-])c2)c1)c1ccc(Cl)cc1 | 
 |  |  | inactive | inactive | inactive | inactive | inactive |  |  |  |  | O=C(Nc1ccc(S(=O)(=O)Oc2cccc([N+](=O)[O-])c2)cc1)c1cccc(F)c1 | 
 |  |  | inactive | inactive | inactive | inactive | inactive |  |  |  |  | Cc1cccc(C(=O)Nc2ccc(NC(=O)c3ccc([N+](=O)[O-])cc3)cc2)c1 | 
 |  |  | inactive | inactive | inactive | inactive | inactive |  |  |  |  | Cc1cccc(C(=O)Nc2ccc(S(=O)(=O)Oc3ccc([N+](=O)[O-])cc3)cc2)c1 | 
 |  |  | inactive | inactive | inactive | inactive | inactive |  |  |  |  | Cc1cccc(C(=O)Nc2ccc(S(=O)(=O)Oc3cccc(C#N)c3)cc2)c1 | 
 |  |  | inactive | inactive | inactive | inactive | inactive |  |  |  |  | Cc1cccc(C(=O)Nc2cccc(NC(=O)c3ccc([N+](=O)[O-])cc3)c2)c1 | 
 |  |  | inactive | inactive | inactive | inactive | inactive |  |  |  |  | O=C(Nc1cccc(S(=O)(=O)Oc2cccc([N+](=O)[O-])c2)c1)c1cccc(F)c1 | 
 |  |  | inactive | inactive | inactive | inactive | inactive |  |  |  |  | Cc1cccc(NC(=O)c2cccc(NC(=O)c3ccc([N+](=O)[O-])cc3)c2)c1 | 
 |  |  | inactive | inactive | inactive | inactive |  |  |  |  | 6.19 | Cc1cccc(C(=O)Nc2ccc(S(=O)(=O)Oc3cccc([N+](=O)[O-])c3)cc2)c1 | 
 |  |  | inactive | inactive | inactive | inactive | inactive |  |  |  |  | Cc1cccc(NC(=O)c2ccc(NC(=O)c3ccc([N+](=O)[O-])cc3)cc2)c1 | 
 |  |  | inactive | inactive | inactive | inactive | inactive |  |  |  |  | Cc1cccc(C(=O)Nc2cccc(NC(=O)Nc3cccc(C(=O)O)c3)c2)c1 | 
 |  |  | inactive | inactive | inactive | inactive | inactive |  |  |  |  | Cc1cccc(C(=O)Nc2ccc(S(=O)(=O)NCc3cccc(Cl)c3)cc2)c1 | 
 |  |  | inactive | inactive | inactive | inactive | inactive |  |  |  |  | Cc1cccc(NC(=O)c2cccc(NC(=O)Nc3cccc(C(=O)O)c3)c2)c1 | 
